Laboratory results reported in article PMC9719791 (Science translational medicine, 2021).

Target: SUMO activating enzyme (SAE) (Homo sapiens, UniProt Q9UBE0+Q9UBT2)
Assay: E1-E2 HTRF transthiolation assay with recombinantly purified SAE
Format: biochemical

Sequence of SUMO activating enzyme (SAE) (Q9UBT2 whole entry): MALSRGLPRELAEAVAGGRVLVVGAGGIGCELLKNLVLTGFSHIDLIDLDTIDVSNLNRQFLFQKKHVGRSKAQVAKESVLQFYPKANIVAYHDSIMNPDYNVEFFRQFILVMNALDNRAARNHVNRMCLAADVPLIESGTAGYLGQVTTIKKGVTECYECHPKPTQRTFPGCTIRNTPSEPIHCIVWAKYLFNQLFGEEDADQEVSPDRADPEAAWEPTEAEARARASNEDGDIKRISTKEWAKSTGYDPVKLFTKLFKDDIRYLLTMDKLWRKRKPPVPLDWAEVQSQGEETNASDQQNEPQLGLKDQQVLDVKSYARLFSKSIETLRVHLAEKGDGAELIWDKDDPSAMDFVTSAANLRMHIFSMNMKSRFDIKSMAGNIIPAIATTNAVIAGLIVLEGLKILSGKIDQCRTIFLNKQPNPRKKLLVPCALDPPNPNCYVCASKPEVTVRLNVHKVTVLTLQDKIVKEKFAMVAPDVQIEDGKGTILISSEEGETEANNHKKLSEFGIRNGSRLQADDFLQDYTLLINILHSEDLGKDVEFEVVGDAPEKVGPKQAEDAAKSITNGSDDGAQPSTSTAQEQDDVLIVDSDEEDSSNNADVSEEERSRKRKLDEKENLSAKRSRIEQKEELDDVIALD
Sequence of SUMO activating enzyme (SAE) (Q9UBE0 whole entry): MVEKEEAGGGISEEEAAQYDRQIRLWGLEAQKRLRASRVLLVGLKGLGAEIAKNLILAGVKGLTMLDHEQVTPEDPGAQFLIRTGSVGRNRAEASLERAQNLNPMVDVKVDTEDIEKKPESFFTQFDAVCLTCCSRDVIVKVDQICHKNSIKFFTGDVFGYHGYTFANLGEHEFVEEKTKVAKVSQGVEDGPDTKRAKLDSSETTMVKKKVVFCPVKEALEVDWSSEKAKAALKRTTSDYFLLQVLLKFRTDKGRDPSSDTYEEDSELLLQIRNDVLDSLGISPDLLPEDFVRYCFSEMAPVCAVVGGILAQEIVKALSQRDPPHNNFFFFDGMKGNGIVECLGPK
Sequence of SUMO activating enzyme (SAE) (P63279 2-158 partner): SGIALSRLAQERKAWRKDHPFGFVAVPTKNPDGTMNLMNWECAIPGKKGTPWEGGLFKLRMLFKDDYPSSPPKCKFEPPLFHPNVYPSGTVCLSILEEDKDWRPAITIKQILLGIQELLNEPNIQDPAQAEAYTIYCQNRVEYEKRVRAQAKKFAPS

`Cc1sc(C(=O)c2cncnc2N[C@@H]2C[C@H](COS(N)(=O)=O)[C@@H](O)C2)cc1[C@@H]1NCCc2ccc(Cl)cc21` [TAK-981, ((1R,2S,4R)-4-((5-(4-((1R)-7-chloro-1,2,3,4-tetrahydroisoquinolin-1-yl)-5-methylthiophene-2-carbonyl)pyrimidin-4-yl)amino)-2-hydroxycyclopentyl)methyl sulfamate] was tested. Which IC50 did it give?
Its IC50 is 0.6 nM.
